The target of test [1] is T1, CnTDH (Cupriavidus necator, UniProt Q0K312, V11I/R67K/G69K/G263D/Q265E/D282Q, form not given).
T1 construct: gene H16_B0820; recombinant in E. coli BL21(DE3), His-tag (HisTrap; pET15b NdeI/BamHI for the designed variants), size-exclusion purified
Briefly: NADH formation at […] nm, Michaelis-Menten fit. As to conditions: 0.1 M Gly-KOH pH 10.0; 2.5 mM NAD+; 0.0-40 mM L-threonine. The format is biochemical.

The target in test [2] is T2, CnTDH (Cupriavidus necator, UniProt Q0K312, N14C/R31N/A62E/A160N/H177Y/A291K/A310K, form not given).
T2 construct: gene H16_B0820; recombinant in E. coli BL21(DE3), His-tag (HisTrap; pET15b NdeI/BamHI for the designed variants), size-exclusion purified
The test can be described thus: NADH formation at […] nm, Michaelis-Menten fit. The format is biochemical. As to conditions: 0.1 M Gly-KOH pH 10.0; 2.5 mM NAD+; 0.0-40 mM L-threonine.

As to `C[C@@H](O)[C@H](N)C(=O)O` [L-threonine], the Km (as a rule, the substrate concentration at which the rate is half of its maximum) on CnTDH [1] amounted to 11.6 ± 1.4 mM; on CnTDH [2], 17.4 ± 1.9 mM.

The record behind these values is PMC12798769, “GArNet: A Genetic Algorithm-Based Protein Redesign Approach to Optimize Mutation Combinations Informed by Network Theory” (Journal of Chemical Information and Modeling, 2025).
